Data on two compounds can be found in PMC6271965, “Inhibition of GlcNAc-Processing Glycosidases by C-6-Azido-NAG-Thiazoline and Its Derivatives” (Molecules, 2014).

Test in all cases: pNP-β-GlcNAc hydrolysis, kinetic assay at […] nm
Holding throughout (format): biochemical

Experiment [1] addresses T1, β-N-acetylhexosaminidase from Streptomyces plicatus (Streptomyces plicatus, UniProt O85361).
T1 construct: gene hex; synthetic gene, His6-tagged fusion in pET-15b (NdeI/BamHI), E. coli BL21(DE3) pLysS, Ni-NTA purified; GH20
T1 sequence (O85361 1-506): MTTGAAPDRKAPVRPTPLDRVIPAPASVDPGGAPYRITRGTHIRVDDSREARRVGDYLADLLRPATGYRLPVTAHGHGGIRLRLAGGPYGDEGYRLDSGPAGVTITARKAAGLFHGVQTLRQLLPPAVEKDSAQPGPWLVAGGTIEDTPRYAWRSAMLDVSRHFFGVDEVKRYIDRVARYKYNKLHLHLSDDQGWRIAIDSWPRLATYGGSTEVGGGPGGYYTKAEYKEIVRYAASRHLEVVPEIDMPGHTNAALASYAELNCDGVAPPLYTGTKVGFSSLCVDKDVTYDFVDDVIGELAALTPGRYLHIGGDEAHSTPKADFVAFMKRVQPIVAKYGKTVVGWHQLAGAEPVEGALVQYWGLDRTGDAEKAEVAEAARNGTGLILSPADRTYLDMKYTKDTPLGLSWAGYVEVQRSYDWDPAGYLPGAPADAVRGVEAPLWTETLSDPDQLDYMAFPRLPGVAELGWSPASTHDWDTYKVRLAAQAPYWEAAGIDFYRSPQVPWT
Particulars: read-out: KI [μM] / NAG-thiazoline (1).

In experiment [2] the target is T2, β-N-acetylhexosaminidase from Talaromyces flavus (Talaromyces flavus, UniProt G5DAA0).
T2 construct: recombinant, secreted from Pichia pastoris, purified by cation exchange chromatography; GH20

Experiment [3] concerns the target T3, O-GlcNAcase from Bacteroides thetaiotaomicron (Bacteroides thetaiotaomicron, UniProt Q89ZI2).
T3 construct: gene BT_4395; gene from D. Vocadlo; GH84
T3 sequence (Q89ZI2 22-737): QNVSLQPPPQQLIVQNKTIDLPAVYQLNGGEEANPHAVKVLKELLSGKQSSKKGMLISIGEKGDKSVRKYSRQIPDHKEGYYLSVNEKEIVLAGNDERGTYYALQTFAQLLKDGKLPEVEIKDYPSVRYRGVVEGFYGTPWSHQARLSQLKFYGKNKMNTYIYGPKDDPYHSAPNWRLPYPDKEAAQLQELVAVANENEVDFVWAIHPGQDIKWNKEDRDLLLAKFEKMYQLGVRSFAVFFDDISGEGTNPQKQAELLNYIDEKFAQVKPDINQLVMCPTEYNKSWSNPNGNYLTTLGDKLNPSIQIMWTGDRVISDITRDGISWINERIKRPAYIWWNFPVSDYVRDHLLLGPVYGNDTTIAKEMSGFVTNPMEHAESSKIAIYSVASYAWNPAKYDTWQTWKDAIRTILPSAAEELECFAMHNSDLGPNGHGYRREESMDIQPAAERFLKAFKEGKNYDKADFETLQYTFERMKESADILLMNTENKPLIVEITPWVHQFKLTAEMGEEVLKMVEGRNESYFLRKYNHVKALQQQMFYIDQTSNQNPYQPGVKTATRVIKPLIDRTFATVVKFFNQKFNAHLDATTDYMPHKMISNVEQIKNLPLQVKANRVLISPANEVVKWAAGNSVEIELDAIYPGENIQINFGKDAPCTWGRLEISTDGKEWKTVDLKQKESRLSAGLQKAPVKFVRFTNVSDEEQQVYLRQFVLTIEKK

For the next experiment, the target named is T4, human O-GlcNAcase (Homo sapiens, UniProt O60502).
T4 construct: gene OGA; gene from D. Vocadlo; GH84
T4 sequence (O60502 1-916): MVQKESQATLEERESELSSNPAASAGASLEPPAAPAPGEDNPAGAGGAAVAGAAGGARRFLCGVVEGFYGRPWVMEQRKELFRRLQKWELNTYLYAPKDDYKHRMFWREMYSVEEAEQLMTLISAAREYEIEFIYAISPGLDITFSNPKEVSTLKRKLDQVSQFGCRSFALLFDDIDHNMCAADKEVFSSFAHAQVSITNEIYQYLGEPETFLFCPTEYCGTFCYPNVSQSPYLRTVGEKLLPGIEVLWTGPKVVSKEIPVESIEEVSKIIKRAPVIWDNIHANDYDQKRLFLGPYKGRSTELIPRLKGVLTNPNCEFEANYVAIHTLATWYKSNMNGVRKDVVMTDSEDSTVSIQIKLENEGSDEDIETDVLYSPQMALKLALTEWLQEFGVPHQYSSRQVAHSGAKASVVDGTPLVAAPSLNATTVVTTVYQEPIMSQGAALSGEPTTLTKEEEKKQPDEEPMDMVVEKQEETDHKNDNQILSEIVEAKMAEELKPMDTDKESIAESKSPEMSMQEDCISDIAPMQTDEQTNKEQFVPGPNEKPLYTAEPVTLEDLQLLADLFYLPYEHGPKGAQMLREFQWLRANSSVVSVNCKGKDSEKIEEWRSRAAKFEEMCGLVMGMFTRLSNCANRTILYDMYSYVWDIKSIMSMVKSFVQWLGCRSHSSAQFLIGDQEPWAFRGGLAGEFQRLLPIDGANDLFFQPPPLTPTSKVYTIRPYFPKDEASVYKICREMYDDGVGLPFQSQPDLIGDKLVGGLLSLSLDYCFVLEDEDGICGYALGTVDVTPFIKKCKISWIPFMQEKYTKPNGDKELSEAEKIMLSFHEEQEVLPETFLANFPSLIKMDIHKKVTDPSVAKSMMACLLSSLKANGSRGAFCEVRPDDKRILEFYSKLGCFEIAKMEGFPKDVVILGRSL
As to conditions: read-out: KI [μM] / C-6-azido-NAG-thiazoline (2).

[4] abbreviates: read-out: KI [μM] / NAG-thiazoline (1).
The mark [5] stands for this setting: read-out: KI [μM] / C-6-azido-NAG-thiazoline (2).

Where two headings read alike, the source gives them in different places.

T2 sequence (G5DAA0 18-628): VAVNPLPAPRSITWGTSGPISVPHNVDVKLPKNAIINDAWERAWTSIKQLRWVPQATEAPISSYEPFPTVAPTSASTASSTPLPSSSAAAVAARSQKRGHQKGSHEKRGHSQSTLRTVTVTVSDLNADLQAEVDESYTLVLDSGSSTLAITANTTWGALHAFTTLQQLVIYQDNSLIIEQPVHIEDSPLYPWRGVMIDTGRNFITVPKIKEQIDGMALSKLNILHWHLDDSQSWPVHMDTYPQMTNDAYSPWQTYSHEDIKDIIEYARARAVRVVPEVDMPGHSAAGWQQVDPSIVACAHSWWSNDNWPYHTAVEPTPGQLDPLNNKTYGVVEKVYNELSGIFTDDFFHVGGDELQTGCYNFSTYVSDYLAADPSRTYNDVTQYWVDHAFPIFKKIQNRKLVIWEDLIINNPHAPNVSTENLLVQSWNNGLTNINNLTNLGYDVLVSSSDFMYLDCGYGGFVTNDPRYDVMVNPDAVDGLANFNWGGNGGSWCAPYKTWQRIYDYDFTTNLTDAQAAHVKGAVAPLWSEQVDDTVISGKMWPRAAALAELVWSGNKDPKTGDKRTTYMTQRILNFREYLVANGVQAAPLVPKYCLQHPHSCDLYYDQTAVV

For the compound `CC1=N[C@@H]2[C@@H](O)[C@H](O)[C@@H](CO)O[C@@H]2S1` [compound 1, 1,2-Dideoxy-2'-methyl-α-D-glucopyrano-[2,1-d]-∆2'-thiazoline], the Ki was 24 ± 5 µM in experiment [1], 42.7 ± 1.9 µM in experiment [2] (setting [4]) and 0.029 ± 0.003 µM in experiment [3] (setting [4]).

`CC1=N[C@@H]2[C@@H](O)[C@H](O)[C@@H](CN=[N+]=[N-])O[C@@H]2S1` [compound 2, 6-Azido-1,2-dideoxy-2'-methyl-α-D-glucopyrano-[2,1-d]-∆2'-thiazoline]: the Ki in experiment [2] (setting [5]) turned out to be 212 ± 16.3 µM; on human O-GlcNAcase it was 19.3 ± 11.9 µM; in experiment [3] (setting [5]), 3.1 ± 0.3 µM.
